In assay [1] the test system is coronavirus COVID-19. It counts as in vivo, human.
The test system of assay [2] is coronavirus COVID-19. It counts as in vivo. The following applies: contact of a positive patient; after 4 days of treatment.

For the molecule `CCN(CC)CCCC(C)Nc1ccnc2cc(Cl)ccc12` (stereo not drawn) [chloroquine], the “contraction of COVID-19 under prophylaxis” value in assay [1] ([…], group of elderly travelers on a ship with cases) is given as “None contract COVID-19 coronavirus”. The “test for the virus upon arrival home after the cruise” value in assay [1] (in vivo) is recorded as “negative”.
As to `CCOC(=O)C1=C[C@@H](OC(CC)CC)[C@H](NC(C)=O)[C@@H](N)C1` [osteltamivir, oseltamivir], the “blood result for COVID-19 virus” value in assay [2] is “positive”.

Source of the values: patent US20250057803A1, “PRODUCTS OF MANUFACTURE AND METHODS FOR TREATING, AMELIORATING OR PREVENTING CORONAVIRUS INFECTION” (TOPELIA AUST LIMITED (ACN 652 771 670), priority 2020, published 2025).
